Source: patent publication US11325906B2, “Chemical compounds” (AstraZeneca AB, priority 2019, dated 2022)

Key:
[1] = test system: BRCA2 (−/−) DLD1 cells; experiment: PARP proliferation assay (4 day compound dosing), BRCA2 (−/−) DLD1; type: cell-based; details: Homo sapiens, 96 h, BRCA2 −/− DLD-1 cells, read-out: BRCA2 −/− DLD-1 prolif 4 d IC50
[2] = test system: DLD1 cells; experiment: PARP proliferation assay (4 day compound dosing), WT DLD1; type: cell-based; details: Homo sapiens, 96 h, WT DLD-1 cells, read-out: WT DLD-1 prolif 4 d IC50

IC50 [1]: 4 nM
IC50 [2]: > 30000 nM
Compound: CCc1cc2ncc(CN3CCN(c4ccc(C(=O)NC)nc4C)CC3)cc2[nH]c1=O [Example 31, 5-[4-[(7-ethyl-6-oxo-5H-1,5-naphthyridin-3-yl)methyl]piperazin-1-yl]-N,6-dimethyl-pyridine-2-carboxamide]
